{
  "source": "patent US20210071180A1",
  "about": "“MICRORNA 584-5P COMPOSITIONS AND METHODS FOR TREATING CANCER” (BOARD OF REGENTS, THE UNIVERSY OF TEXAS SYSTEM, priority 2018, published 2021)",
  "assay_type_in_all_cases": "cell-based",
  "key": {"[1]": {"system": "D458Med cells", "test": "miRNA mimic library screen, CellTiter-Glo cell viability", "conditions": "screen of 1,902 miRNA mimics, VCR at IC20", "description": "To identify miRNAs that may sensitize VCR response in MB, a high-throughput screening platform was combined with a library of 1,902 chemically synthesized human miRNA mimics. The miRNAs are arrayed in a one-miRNA-one-well format in 96-well microtiter plates. Reverse transfection of Group 3/c-Myc-amplified D458Med cells was performed in triplicate in the presence and absence of a sublethal dose of VCR, which was optimized in four MB cell lines before the screen (FIG. 2A). Cells were subjected to VCR at an IC20 lethal concentration for 72 hours after 48 hours of transfection, and cell viability was measured (FIG. 1A). Candidate miRNAs were prioritized for validation by functional and interaction assays using standard Student t-tests (with pooled variance), false discovery rate (Q=0.5%), and by using the magnitude of response (lowest 2.5 percentile of the distribution of the μVCR/μControl ratios).\nmiRNA mimic library screen. The primary screen was conducted using MI00200 MISSION microRNA Mimic v.17, in which miRNA mimics were arrayed in a one-miRNA-one-well format in 96-well microtiter plates. […] Cell viability was assessed using CellTiter-Glo (Promega, Madison, Wis., USA) according to the manufacturer's protocol. ath-miR-416 or cel-miR-243 was added as a negative control, whereas siRNA against PLK-1 was used as a positive control in each plate. […]"}, "[2]": {"system": "3′-UTR of HDAC1", "test": "Dual luciferase 3′-UTR reporter assay (HDAC1)", "conditions": "miR-584-5p mimic in comparison with scrambled", "description": "(§1) Dual luciferase assay. Wild-type or mutant 3′-UTR segments of the eIF4E3 and HDAC1 gene were cloned downstream of the luciferase gene in pGL3-promoter vector at the SacI and SpeI restriction sites. HEK293 cells were cotransfected with Renilla luciferase vector (pRLnull 380) and firefly luciferase vector containing pGL3-wt-eIF4E3; pGL3-mut-eIF4E3; or pGL3-wt-HDAC1, pGL3-mut-HDAC1, or pGL3 overnight and incubated in fresh complete medium for an additional 48 hours after transfection. Cells were then transfected with miRNA mimic (Invitrogen) for 24 hours. Next, cells were harvested with 1× passive lysis buffer (Promega) and luciferase activity was read using GLOMAX 20/20 luminometer (Promega).\n(§2) Data are z-transformed. The cutoff criteria for each gene are fold change >2, sample intensity >10, and p-value <0.05. […] To validate the gene expression analysis and target prediction results, it was determined whether miR-584-5p reduced HDAC1/eIF4E3 expression by binding to their 3′-untranslated regions (3′-UTRs). […] Also shown are the portion of the miR-584-5p sequence (SEQ ID NO: 15; UAUGGUU) that binds to the wild-type 3′UTR and seed sequence mutant (SEQ ID NO: 16; […], top panel; and SEQ ID NO: 17; […]; bottom panel). Also shown is miR-584-5p seed sequence mutated sequences. […] The p-values were calculated using standard Student t-tests. […] The p-values were calculated using standard Student t-tests."}, "[3]": {"system": "3′-UTR of eIF4E3", "test": "Dual luciferase 3′-UTR reporter assay (eIF4E3)", "conditions": "miR-584-5p mimic in comparison with scrambled", "description": "as §1, §2"}, "[4]": {"system": "MB cells", "test": "Annexin V-FITC FACS analysis of apoptosis", "conditions": "Annexin V staining", "description": "To gain more insight into the tumor-suppressing and VCR-sensitizing activities of miR-584-5p, it was determined how the miR-584-5p mimic affected cell cycle progression of MB cells. […] Bar graphs show DNA histograms quantified using the FlowJo software. In FIG. 9A, the p-values were determined by two-way ANOVA followed by Tukey's multiple-comparisons test. Error bars represent mean±SEM. […] In FIG. 9B, the p-values were calculated using standard Student t-tests. Error bars represent mean±SEM. […] Next, it was determined whether miR-584-5p's effect on cell cycle progression may be mediated via its target genes eIF4E3/HDAC1. […] Bar graphs show dot plots quantified using the FlowJo software. Next, it was tested whether miR-584-5p-induced cell cycle arrest led to apoptosis of MB cells. […] In FIG. 8C, the bar graphs reflect DNA histograms quantified using the FlowJo software and in FIG. 8D and FIG. 9C, the bar graphs show dot plots quantified using the FlowJo software. The p-values for panels 8A-D and FIG. 9C were determined by two-way ANOVA followed by Tukey's multiple-comparisons test. Error bars represent mean±SEM. ****, p<0.0001; ***, p<0.001; **, p<0.01; *, p<0.05.\nFlow cytometry analysis of cell cycle and apoptosis. […] Cells were analyzed using either FACScantoII or LSRII cytometers, and data were quantified using FlowJo 10.2 software."}},
  "data": [
    {"substance": "miR-584-5p: microRNA mimic; nucleotide sequence UUAUGGUUUGCCUGGGACUGAG (SEQ ID NO: 1); purchased from Thermofisher (chemistry not given here)", "values": [
      {"measurement": "difference in cell viability in VCR-treated MB cells in comparison with untreated cells", "setting": "[1]", "value": "highest magnitude of difference in cell viability"},
      {"measurement": "luciferase activity, HDAC1 3′-UTR with mutated miR-584-5p binding sites", "setting": "[2]", "value": "no change in luciferase activity"},
      {"measurement": "luciferase activity, wild-type HDAC1 3′-UTR construct", "setting": "[2]", "value": "significantly reduced"},
      {"measurement": "luciferase activity, eIF4E3 3′-UTR with mutated miR-584-5p binding sites", "setting": "[3]", "value": "no change in luciferase activity"},
      {"measurement": "luciferase activity, wild-type eIF4E3 3′-UTR construct", "setting": "[3]", "value": "significantly reduced"},
      {"measurement": "apoptosis of MB cells", "setting": "[4]", "value": "increased apoptosis"}
    ]}
  ]
}
